Measurements taken from ChEMBL document CHEMBL1201862, “PubChem BioAssay data set” (2004).
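Where inhibition never reached the appropriate level, the endpoint shown equals the highest concentration tested. Otherwise, values were interpolated linearly from a five-concentration, 48-hour dose response in 96-well plates. At the GI50, growth is halved.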 The source made the active and inactive calls. No stated cut-off is given here; in the data, active = GI50 up to about 1.1 µM and inactive = higher.

What was measured:
Assay in all cases: NCI-60 cell line screen, 48 h
[1] = tested on: 786-0
[2] = tested on: A549
[3] = tested on: BT-549
[4] = tested on: CCRF-CEM
[5] = tested on: HCT-15
[6] = tested on: IGROV-1
[7] = tested on: K562
[8] = tested on: MDA-N
[9] = tested on: MOLT-4
[10] = tested on: Malme-3M
[11] = tested on: NCI-H522
[12] = tested on: OVCAR-3
[13] = tested on: OVCAR-5
[14] = tested on: OVCAR-8
[15] = tested on: RPMI-8226
[16] = tested on: SF-295
[17] = tested on: SK-MEL-5
[18] = tested on: SR
[19] = tested on: UO-31
[20] = tested on: SK-MEL-2

Row | Structure (SMILES) | GI50 [1] | GI50 [2] | GI50 [3] | GI50 [4] | GI50 [5] | GI50 [6] | GI50 [7] | GI50 [8] | GI50 [9] | GI50 [10] | GI50 [11] | GI50 [12] | GI50 [13] | GI50 [14] | GI50 [15] | GI50 [16] | GI50 [17] | GI50 [18] | GI50 [19] | GI50 [20]
1 | S=C1CSc2c(cnc3ccccc23)N1 | > 100 µM (inactive) | > 100 µM (inactive) | 71.4 µM (inactive) | > 100 µM (inactive) | > 100 µM | > 100 µM (inactive) | > 100 µM (inactive) | > 100 µM (inactive) | > 100 µM (inactive) | > 100 µM (inactive) | > 100 µM (inactive) | > 100 µM (inactive) | > 100 µM (inactive) | 65.9 µM (inactive) | > 100 µM (inactive) | 52.2 µM (inactive) | > 100 µM (inactive) | > 100 µM (inactive) | 65.6 µM (inactive) | –
2 | CN(CCSCCN(C)C(=O)OC(C)(C)C)C(=O)OC(C)(C)C | > 100 µM (inactive) | > 100 µM (inactive) | > 100 µM (inactive) | > 100 µM (inactive) | > 100 µM | > 100 µM (inactive) | > 100 µM (inactive) | > 100 µM (inactive) | > 100 µM (inactive) | > 100 µM (inactive) | > 100 µM (inactive) | > 100 µM (inactive) | > 100 µM (inactive) | > 100 µM (inactive) | – | > 100 µM (inactive) | > 100 µM (inactive) | > 100 µM (inactive) | > 100 µM (inactive) | > 100 µM (inactive)
3 | O=C1CCCCC1=C(I)I | 16.5 µM (inactive) | 37.8 µM (inactive) | 13 µM (inactive) | 19.1 µM (inactive) | – | 15.5 µM (inactive) | 16 µM (inactive) | 16.9 µM (inactive) | 17.9 µM (inactive) | 14.3 µM (inactive) | – | 16.3 µM (inactive) | 17.5 µM (inactive) | 33.9 µM (inactive) | 15.1 µM (inactive) | 24.8 µM (inactive) | 17.9 µM (inactive) | 16.1 µM (inactive) | 16.7 µM (inactive) | 16.7 µM (inactive)
4 | Cn1c(=O)c2c(nc3sc4nc5ccccc5nc4n32)n(C)c1=O | > 100 µM (inactive) | > 100 µM (inactive) | > 100 µM (inactive) | > 100 µM (inactive) | > 100 µM | > 100 µM (inactive) | > 100 µM (inactive) | > 100 µM (inactive) | > 100 µM (inactive) | > 100 µM (inactive) | – | > 100 µM (inactive) | > 100 µM (inactive) | > 100 µM (inactive) | > 100 µM (inactive) | 49.5 µM (inactive) | 32.7 µM (inactive) | > 100 µM (inactive) | > 100 µM (inactive) | –
5 | Cc1cc(O)c2c(c1O)C(=O)c1cccc(O)c1C2=O [ISLANDICIN] | > 100 µM (inactive) | > 100 µM (inactive) | > 100 µM (inactive) | > 100 µM (inactive) | > 100 µM | > 100 µM (inactive) | > 100 µM (inactive) | > 100 µM (inactive) | – | – | 47.8 µM (inactive) | > 100 µM (inactive) | > 100 µM (inactive) | > 100 µM (inactive) | > 100 µM (inactive) | > 100 µM (inactive) | > 100 µM (inactive) | – | > 100 µM (inactive) | > 100 µM (inactive)
6 | Cc1nn(CN2CCN(C)CC2)c(=S)n1/N=C/c1ccc(-c2ccc(Cl)cc2Cl)o1 | 50.1 µM (inactive) | > 100 µM (inactive) | > 100 µM (inactive) | – | 47.2 µM | 81.8 µM (inactive) | 50.8 µM (inactive) | 50.5 µM (inactive) | 30.5 µM (inactive) | > 100 µM (inactive) | > 100 µM (inactive) | 64 µM (inactive) | > 100 µM (inactive) | 51.3 µM (inactive) | – | – | 43.3 µM (inactive) | 37 µM (inactive) | 92.9 µM (inactive) | > 100 µM (inactive)
7 | O=S(=O)(O)c1cc(/N=N/c2cccc3ccccc23)c(O)c2ncccc12 | 38.7 µM (inactive) | 35.4 µM (inactive) | > 100 µM (inactive) | 24.7 µM (inactive) | 47.2 µM | 29.3 µM (inactive) | 32.1 µM (inactive) | 58.3 µM (inactive) | 26.9 µM (inactive) | – | – | 22.5 µM (inactive) | 72.8 µM (inactive) | > 100 µM (inactive) | 41.2 µM (inactive) | > 100 µM (inactive) | 31.1 µM (inactive) | 23.2 µM (inactive) | – | 82 µM (inactive)
8 | CCOC(=O)c1cc(Br)c(-c2cc(C)co2)[nH]1 | > 100 µM (inactive) | > 100 µM (inactive) | > 100 µM (inactive) | > 100 µM (inactive) | > 100 µM | 66.1 µM (inactive) | 69.8 µM (inactive) | 36.4 µM (inactive) | 54.6 µM (inactive) | > 100 µM (inactive) | – | > 100 µM (inactive) | > 100 µM (inactive) | > 100 µM (inactive) | > 100 µM (inactive) | > 100 µM (inactive) | 81.3 µM (inactive) | 31.8 µM (inactive) | 66.7 µM (inactive) | > 100 µM (inactive)
